Results: patent US10233201B2, “Class of HDAC inhibitors expands the renal progenitor cells population and improves the rate of recovery from acute kidney injury” (University of Pittsburgh—Of the Commonwealth System of …, priority 2012, dated 2019)

What was measured:
[1] = system: renal progenitor cells (lhx1a expression); assay: In situ hybridization for lhx1a expression in 10-somite embryos (renal progenitor cell expansion); format: in vivo; details: for lhx1a expansion class, 800 nM: 800 nM from 2 hpf; on lhx1a expansion class, 800 nM: key: effective (+); partially effective (+/−); ineffective (−); Analogs that killed all embryos at a given concentration before reaching 10 somites are listed as XX
Procedure, shortened: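 Zebrafish embryos treated with compound, then colorimetric whole-mount in situ hybridization for lhx1a mRNA at 10-somite stage (hybridization 65 °C). Percent embryos with expanded kidney field counted manually; EC50 read as the 50% point of the plotted curve.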

histone H4 acetylation = assay: Histone H4 hyperacetylation Western blot in embryos; format: in vivo, zebrafish; details: 24 hpf embryos treated 6 hours; 3 μM PTBA, 25 μM PBA, 200 nM TSA
Description: It was next determined whether the HDACi function of PTBA was quantifiable in vivo. 24 hpf embryos were treated with 3 μM PTBA, 25 μM PBA, or 200 nM TSA for 6 hours. Protein extracts were prepared and immunoblotted with an anti-hyperacetylated histone H4 antibody. […] Furthermore, increasing the compound concentration caused a corresponding increase in hyperacetylation (FIG. 21).
SDS-PAGE and Western blotting were performed as described previously with some modifications (Noel, E. S. et al. Organ-specific requirements for Hdac1 in liver and pancreas formation. Dev Biol 322, 237-250, (2008)). Proteins were separated on 18% SDS-PAGE gels. Membranes were incubated at 4° C. overnight with 1:1000 anti-hyperacetylated histone H4 antibody (06-946, Millipore) or 1:1000 anti-α-tubulin antibody (Sigma-Aldrich) in PBT containing 5% nonfat milk.

renal progenitor cells = assay: Tg(lhx1a:EGFP) reporter: renal progenitor cell counting; format: in vivo, zebrafish
Description: Tg(lhx1a:EGFP)^pt303 embryos were treated with 3 μM PTBA and then fixed in 4% paraformaldehyde in PBS for 8 hours at 4° C. Embryos were washed in PBS containing 0.1% TWEEN 20 (PBT) and incubated in 1 μg/ml DAPI in PBT for 30 minutes at room temperature. Embryos were flat-mounted on glass slides with Cytoseal 60 and imaged with either a Leica M205 FA epifluorescent microscope or an Olympus FluoView 1000 confocal microscope. Confocal projections contained stacks of six 3 μm images. A predefined box was positioned at the most posterior region of the notochord and included the most lateral GFP-positive cell in a kidney field. The cells that were positive for both GFP and DAPI within this box were counted manually with the aid of ImageJ. Variances of the control and PTBA-treated groups were compared by F test and found to be unequal. Therefore, a two-tailed t test with unequal variance was used to determine significance (α=0.05).
For all second-generation compounds, the cad17:EGFP transgene is used as the primary readout to assay for expansion of kidney field (FIG. 35). PTBA analogues that expand cad17:EGFP expression are subjected to a secondary screen. […] Such compounds are assessed in target efficacy and toxicity assays.

[2] = system: proximal convoluted tubule cells; assay: Gentamycin-induced AKI in zebrafish larvae: renal cell proliferation (EdU); format: in vivo; details: 4 μM added 2 days post injection of gentamicin; larvae at 5 days post injection
Description: FIG. 42A is a graph showing the results of an AKI model using gentamycin-induced injury. AKI is generated as per a recent publication, Cianciolo Cosenitino, C., et al. ((2010) Intravenous microinjections of zebrafish larvae to study acute kidney injury. JoVE August 4 (42), pii: 2079. doi: 10.3791/2079). Four micromolar m4PTB (UPHD-00025) was added to the zebrafish E3 media in 0.5% DMSO at 2 days post injection of gentamicin and the larvae are scored daily for four days (6 days post injection) as alive or dead, with the final data tallied on day 6 post injection FIG. 42B.
Proliferation of renal cells was examined post AKI for m4PTB in zebrafish larvae (FIG. 43). AKI is generated as above with gentamycin, essentially as described in Example 11. Four μM m4PTB was added 2 days post injection of gentamicin. Zebrafish larvae at 5 days post injection were treated for 1 hour with the thymidine analogue EdU (10 milimolar), which incorporates into dividing (proliferating cells) while the larvae are in the zebrafish E3 media. The larvae where then fixed and processed for histology to count the number of proliferating cells in the proximal convulted tubule (as marked by the antibody 3G8). The number of proliferating cells was divided by the total number of cells in the proximal convoluted tubule to generate the percent of proliferation also known as the proliferation index as shown in FIG. 43.

| Compound | lhx1a expansion class, 800 nM [1] | embryos with expanded lhx1a expression ([1]; 0.5% DMSO at 5 hpf, 3 μM PTBA at 8 hpf) [%] | responders at 0.8 µM ([1]; Danio rerio, 800 nM, read-out: embryos with expanded lhx1a expression (% expansion)) [%] | embryos with expanded lhx1a expression ([1]; injected with 200 pg DN-RARα mRNA, then 3 μM PTBA at 5 hpf) [%] | histone H4 hyperacetylation (histone H4 acetylation) | increase in the number of renal progenitor cells (renal progenitor cells; 3 μM, 10-somite Tg(lhx1a:EGFP)pt303 embryos) [fold] | effective dose for the renal progenitor assay ([1]; zebrafish, in vivo) [nM] | lowest dose at which expansion of the renal progenitor cell population starts to be seen (renal progenitor cells; lhx1a:EGFP transgene, data not shown) [nM] | renal cell proliferation (proliferation index) [2] |
| --- | --- | --- | --- | --- | --- | --- | --- | --- | --- |
| O=C(O)CCCSc1ccccc1 [PTBA, 4-(phenylthio)butanoic acid] | +/− | 97 | < 25 | 19 | hyperacetylation was observed | 2.4 |  |  |  |
| COC(=O)CCCSc1ccccc1 [UPHD-00025, methyl 4-(phenylsulfanyl) butanoate] | +/− |  |  |  |  |  | ~800 | 600 | significantly increased |
